Laboratory results as given in patent US20210059963A1, “Beta-blockers for treating and/or preventing pathological scars” (GENEPRED BIOTECHNOLOGIES, priority 2017, published 2021).

Tests used:
Format in all cases: in vivo, human
[1] = tested on: patients with keloid scars; experiment: Overall evaluation of the effect of the treatment on patient clinical conditions
Excerpt: (§1) During a clinical evaluation and treatment of subjects infected with Schistosoma mansoni in Uganda, the inventors used propranolol to lower portal blood pressure in subjects with severe liver disease (hepatic fibrosis) and splenomegaly. High portal blood pressure causes the development of oesophageal varices and variceal bleedings that are the principal cause of death in S.mansoni-infected subjects. Propranolol is currently used to reduce the risk of variceal bleedings because that drug has blocking effects on beta receptors of the nervous system, thus reducing portal pressure. Five to ten percent of the 5000 fishermen and fisher women of the study had haemorrhagic bleedings from oesophageal varices or were at risk of bleeding. In an attempt to reduce bleedings, propranolol was given to them by the oral route, one 40 mg pill per day. This molecule has little side effects and can be prescribed safely for very long periods excepted to asthmatic subjects and to patients with cardiac problems.
(§2) During the study, one of the patients had mentioned that their keloid scars were not itching any more since they were treated for high portal pressure. This prompted the inventors to check whether this effect had also been noticed by other patients under the same treatment. The data presented here, have been obtained on 30 of these patients, they were collected from 30 out of 60 patients who had received this same treatment because of a high risk of variceal bleedings. The remaining 30 patients were not available, at that time, for evaluation of the propranolol effects.
The proposed answers were: a lot of improvement, much improvement, a little improvement and no improvement. […] Only one answer per patient was accepted. Forty four (44.8%) and twenty seven (27.6%) percent of the patients estimated that the treatment had improved either much or a lot their condition, respectively.

[2] = tested on: patients with keloid scars; experiment: Effect of propranolol on itching associated with keloids (patient report)
Excerpt: as §1, §2
(§3) Keloid Grading: Patient keloid scars were classified as low, intermediate or high severity.
(§4) Low severity corresponded to one or two scars on any part of the body, intermediate severity corresponded to various scars (including large cordons) on at least 3 different part of the body. Severe grades keloids combined extended large patches and many long and large scars on different part of the body.
(§5) Statistical analysis was performed using the SPSS software. The effects of the treatment were tested with the nonparametric Wlcoxon test performed on paired data (before and after treatment). P values were calculated for a two sided test.

[3] = tested on: patients with keloid scars; experiment: Effect of propranolol on pain associated with keloids (patient report)
Excerpt: as §1, §2, §3, §4, §5

[4] = Global 1 + 2, 40 mg per day for 2 to 4 days, oral
[5] = Global 1 + 2, 40 mg per day for 2 to 4 days, oral, listed as propranol
[6] = Itching prior to Treatment 1, oral 40 mg per day
[7] = Itching prior to Treatment 2, oral 40 mg per day
[8] = share of patients with this effect who had Itching prior to Treatment 1
[9] = share of patients with this effect who had Itching prior to Treatment 2
[10] = Global 1 + 2, oral 40 mg per day
[11] = Pain Prior to Propranolol 1, oral 40 mg per day
[12] = Pain Prior to Propranolol 2, oral 40 mg per day
[13] = share of patients with this effect who had Pain Prior to Propranolol 1
[14] = share of patients with this effect who had Pain Prior to Propranolol 2

Structure (SMILES): CC(C)NCC(O)COc1cccc2ccccc12 (centres unmarked) [propranolol]
- patients estimating that the treatment had improved a lot their condition ([1]; answer: a lot of improvement, FIG. 3): 27.6%
- patients estimating that the treatment had improved much their condition ([1]; answer: much improvement, FIG. 3): 44.8%
- patients who felt that the treatment had clearly improved their clinical status ([1]; total of much and a lot of improvement): 72.4%
- Effect of Propranolol on Itching: none, % in 1 + 2 [2, 4]: 20.0%
- Effect of Propranolol on Itching: partial (marked reduction), % in 1 + 2 [2, 4]: 56.7%
- Effect of Propranolol on Itching: total, % in 1 + 2 [2, 4]: 23.3%
- Effect of Propranolol on Itching: none, % in 1 + 2 [2, 5]: Twenty
- Effect of Propranolol on Itching: total, % in 1 + 2 [2, 5]: 23.6%
- Effect of Propranolol on Itching: none, % in 1 [2, 6]: 0.0%
- Effect of Propranolol on Itching: partial, % in 1 [2, 6]: 80.0%
- Effect of Propranolol on Itching: total, % in 1 [2, 6]: 20.0%
- Effect of Propranolol on Itching: none, % in 2 [2, 7]: 30.0%
- Effect of Propranolol on Itching: partial, % in 2 [2, 7]: 45.0%
- Effect of Propranolol on Itching: total, % in 2 [2, 7]: 25.0%
- treated patients confirming that oral administration reduced keloid scar itching ([2]; oral administration, 30 patients): 80%
- effect of the treatment on itching as a function of keloid grades ([2]; patients with all keloid grades (low, intermediate, high), FIG. 1): reduced
- Effect of Propranolol on Itching: none, % in none/partial/total [2, 8]: 0%
- Effect of Propranolol on Itching: partial, % in none/partial/total [2, 8]: 47.1%
- Effect of Propranolol on Itching: total, % in none/partial/total [2, 8]: 28.6%
- Effect of Propranolol on Itching: none, % in none/partial/total [2, 9]: 100%
- Effect of Propranolol on Itching: partial, % in none/partial/total [2, 9]: 52.9%
- Effect of Propranolol on Itching: total, % in none/partial/total [2, 9]: 71.4%
- study subjects reporting no effects of the treatment on keloid associated pain [3]: 20%
- study subjects reporting reduction of the pain [3]: 56.7%
- Effects of Propranolol on Pain: Total, % in 1 + 2 [3, 10]: 29.2%
- Effects of Propranolol on Pain: none, % in 1 + 2 [3, 10]: 25.0%
- Effects of Propranolol on Pain: partial, % in 1 + 2 [3, 10]: 45.8%
- Effects of Propranolol on Pain: Total, % in 1 [3, 11]: 35.7%
- Effects of Propranolol on Pain: none, % in 1 [3, 11]: 28.6%
- Effects of Propranolol on Pain: partial, % in 1 [3, 11]: 35.7%
- Effects of Propranolol on Pain: Total, % in 2 [3, 12]: 20.0%
- Effects of Propranolol on Pain: none, % in 2 [3, 12]: 20.0%
- Effects of Propranolol on Pain: partial, % in 2 [3, 12]: 60.0%
- study subjects reporting a total abolition of pain ([3]; for at least 2 to 3 days): 23.3%
- effect of the treatment on pain as a function of keloid grades ([3]; patients with all keloid grades (low, intermediate, high), FIG. 2): reduced
- Effects of Propranolol on Pain: Total, % in none/partial/total [3, 13]: 71.4%
- Effects of Propranolol on Pain: none, % in none/partial/total [3, 13]: 66.7%
- Effects of Propranolol on Pain: partial, % in none/partial/total [3, 13]: 45.5%
- Effects of Propranolol on Pain: Total, % in none/partial/total [3, 14]: 28.6%
- Effects of Propranolol on Pain: none, % in none/partial/total [3, 14]: 33.3%
- Effects of Propranolol on Pain: partial, % in none/partial/total [3, 14]: 54.5%
